According to patent publication US11628228B2, “99mTc-labeled isonitrile-containing glucose derivative and preparation method and use thereof” (Beijing Shihong Pharmaceutical Research Center, priority 2017, dated 2023):

Assays:
S180-bearing mice = assay: Bio-distribution in tumor-bearing mice; assay type: in vivo; conditions: for Blood uptake / Bone uptake / Heart uptake / Kidney uptake / Liver uptake / Lung uptake / Muscle uptake / Small intestine uptake / Spleen uptake / Stomach uptake / Tumor uptake / Tumor/blood ratio / Tumor/muscle ratio: S180-bearing mice, tail vein
Method: The labeled solution (0.1 mL, 74 KBq) is injected into mice through the tail vein, and the injection time is recorded. Then the mice were killed by cervical dislocation at different time phases (30 minutes, 60 minutes, and 120 minutes), five mice for each time phase, and the organs of interest such as heart, liver, lung, kidney, spleen, stomach, muscle, blood and tumor are taken out after dissection, and measured with a γ-counter for the radioactive count of each organ. The uptake value of each organ is obtained by calculation based on the mass of the organ (with % ID/g as the unit).

[1] = Determination of the lipid-water partition coefficient (n-octanol/PBS); assay type: physicochemical
Method: One hundred μL of the labeled substance solution (50 μCi) diluted with normal saline is placed into a 2 mL centrifuge tube, and then 800 μL of n-octanol and 700 μL of PBS are added to the centrifuge tube, which is subsequently covered with a cap. The centrifuge tube is vortexed for 3 minutes (2500 r/minute), allowed to stand until the solution is layered, and centrifuged in a centrifuge for 3 minutes (3000 r/minute). Three samples of the upper organic phase and three samples of the lower aqueous phase are taken, each 100 μL, and detected in a γ-counter for the radioactive counts of the organic and aqueous phases, respectively.

tumor-bearing mice = conditions: 0.5 hour after injection, literature; cited from earlier work

O=C(CCCC[N+]#[C][99Tc-5]([C]#[N+]CCCCC(=O)NC1C(O)OC(CO)C(O)C1O)([C]#[N+]CCCCC(=O)NC1C(O)OC(CO)C(O)C1O)([C]#[N+]CCCCC(=O)NC1C(O)OC(CO)C(O)C1O)([C]#[N+]CCCCC(=O)NC1C(O)OC(CO)C(O)C1O)[C]#[N+]CCCCC(=O)NC1C(O)OC(CO)C(O)C1O)NC1C(O)OC(CO)C(O)C1O (stereo not shown) [[^99mTc-(CN4DG)6]^+]
Blood uptake (S180-bearing mice; 30 min): 1.80 ± 0.53 % ID/g
Bone uptake (S180-bearing mice; 30 min): 0.73 ± 0.23 % ID/g
Heart uptake (S180-bearing mice; 30 min): 0.70 ± 0.18 % ID/g
Kidney uptake (S180-bearing mice; 30 min): 4.93 ± 1.11 % ID/g
Liver uptake (S180-bearing mice; 30 min): 0.66 ± 0.13 % ID/g
Lung uptake (S180-bearing mice; 30 min): 1.75 ± 0.49 % ID/g
Muscle uptake (S180-bearing mice; 30 min): 0.57 ± 0.18 % ID/g
Small intestine uptake (S180-bearing mice; 30 min): 1.06 ± 0.33 % ID/g
Spleen uptake (S180-bearing mice; 30 min): 0.53 ± 0.12 % ID/g
Stomach uptake (S180-bearing mice; 30 min): 0.81 ± 0.33 % ID/g
Tumor uptake (S180-bearing mice; 30 min): 1.72 ± 0.30 % ID/g
Tumor/blood ratio (S180-bearing mice; 30 min): 0.95
Tumor/muscle ratio (S180-bearing mice; 30 min): 3.01
Blood uptake (S180-bearing mice; 60 min): 0.30 ± 0.13 % ID/g
Bone uptake (S180-bearing mice; 60 min): 0.19 ± 0.04 % ID/g
Heart uptake (S180-bearing mice; 60 min): 0.22 ± 0.08 % ID/g
Kidney uptake (S180-bearing mice; 60 min): 1.57 ± 0.27 % ID/g
Liver uptake (S180-bearing mice; 60 min): 0.28 ± 0.06 % ID/g
Lung uptake (S180-bearing mice; 60 min): 0.40 ± 0.11 % ID/g
Muscle uptake (S180-bearing mice; 60 min): 0.27 ± 0.17 % ID/g
Small intestine uptake (S180-bearing mice; 60 min): 0.25 ± 0.11 % ID/g
Spleen uptake (S180-bearing mice; 60 min): 0.21 ± 0.04 % ID/g
Stomach uptake (S180-bearing mice; 60 min): 0.23 ± 0.07 % ID/g
Tumor uptake (S180-bearing mice; 60 min): 0.88 ± 0.09 % ID/g
Tumor/blood ratio (S180-bearing mice; 60 min): 2.93
Tumor/muscle ratio (S180-bearing mice; 60 min): 3.26
Blood uptake (S180-bearing mice; 120 min): 0.03 ± 0.01 % ID/g
Bone uptake (S180-bearing mice; 120 min): 0.13 ± 0.09 % ID/g
Heart uptake (S180-bearing mice; 120 min): 0.10 ± 0.04 % ID/g
Kidney uptake (S180-bearing mice; 120 min): 1.24 ± 0.53 % ID/g
Liver uptake (S180-bearing mice; 120 min): 0.17 ± 0.03 % ID/g
Lung uptake (S180-bearing mice; 120 min): 0.13 ± 0.02 % ID/g
Muscle uptake (S180-bearing mice; 120 min): 0.15 ± 0.07 % ID/g
Small intestine uptake (S180-bearing mice; 120 min): 0.36 ± 0.21 % ID/g
Spleen uptake (S180-bearing mice; 120 min): 0.11 ± 0.02 % ID/g
Stomach uptake (S180-bearing mice; 120 min): 0.08 ± 0.01 % ID/g
Tumor uptake (S180-bearing mice; 120 min): 0.45 ± 0.17 % ID/g
Tumor/blood ratio (S180-bearing mice; 120 min): 15.00
Tumor/muscle ratio (S180-bearing mice; 120 min): 3.00
Tumor/liver ratio (S180-bearing mice; tumor-bearing mice, 0.5 hour after injection): 2.60
Log P (lipid-water partition coefficient) [1]: −3.84±0.06

O=C(NC1C(O)O[C@H](CO)[C@@H](O)[C@@H]1O)C1C[S][Tc]23(=[O])[S]C[C@@H](C(=O)NC4C(O)O[C@H](CO)[C@@H](O)[C@@H]4O)[N]2CC[N]13 (stereo partly shown) [^99mTc-ECDG]
Blood uptake (tumor-bearing mice): 1.61 ± 0.39 % ID/g
Kidney uptake (tumor-bearing mice): 6.73 ± 1.84 % ID/g
Liver uptake (tumor-bearing mice): 5.67 ± 2.08 % ID/g
Muscle uptake (tumor-bearing mice): 0.26 ± 0.07 % ID/g
Tumor uptake (tumor-bearing mice): 0.79 ± 0.16 % ID/g
Tumor/blood ratio (tumor-bearing mice): 0.49
Tumor/liver ratio (tumor-bearing mice): 0.14
Tumor/muscle ratio (tumor-bearing mice): 3.04
